Structures can show the parent of a compound that is named as a salt.
Tested on: THP-1 cells
Test: cells
Format: cell-based
Conditions: Homo sapiens, THP-1, 96 h
Procedure: By analyzing the induction of CD11b membrane expression on THP-1 cells we are assessing the ability of LSD1 inhibitors to induce terminal monocytic differentiation of a MLL-AF9 AML cell line.
They carry t(9; 11)(p21; q23) leading to MLL-MLLT3 (MLL-AF9) fusion gene. This cell line can undergo monocytic differentiation upon treatment with the appropriate stimulus.
In this assay, 150,000 THP-1 cells were seeded in 1 ml of complete culture medium in 6-well tissue culture plates. Serial dilutions of the compounds were prepared in DMSO and then further diluted in complete medium to generate solutions of concentrations that are double of the final concentration at which the cells will be exposed. 1 ml of these 2× concentrated solutions was added to the cells.
Cells were kept in the presence of compounds for 96 h at a 5% CO2 atmosphere at 37° C. After this treatment period, cells were harvested, washed twice with PBS buffer and placed in a V-bottom 96-well plate. Each treated sample was split in two.
Percentage of CD11b positive cells, as an indicator of monocytic differentiation, was determined compared to isotype control antibody stained cells. EC50 values were calculated by non-linear regression analysis.

| SMILES | EC50 |
| --- | --- |
| c1ccc([C@H]2C[C@@H]2NC2CCNCC2)cc1 (racemic) [Example 1, N-((trans)-2-phenylcyclopropyl)piperidin-4-amine hydrochloride] | 2.1 nM |
| c1ccc([C@@H]2C[C@H]2NC2CCNCC2)cc1 [Example 3, N-((1R,2S)-2-phenylcyclopropyl)piperidin-4-amine hydrochloride] | 0.8 nM |

Source: patent publication US10329256B2, “(Hetero)aryl cyclopropylamine compounds as LSD1 inhibitors” (Oryzon Genomics, S.A., priority 2011, dated 2019)
